This assay concerns transgenic Zaire Ebola virus (EBOV) of the Mayinga strain, expressing green fluorescent protein (EBOV-GFP). Type of assay: cell-based.

*1 amine or outer side, *2 acyl side, *3 side chain or, on linkers, in order; H or OH if unused. Where a SMILES comes first, the peptide text is derived from it. [ ]: non-standard residue; d: D form. X1 = CCCCCCCCCCCCCCN(CC(=O)[*:2])[*:1]; Nrpe = C[C@@H](NCC(=O)O)c1ccccc1; Nlys = NCCCCNCC(=O)O

As for `CCCCCCCCCCCCCCNCC(=O)N(CCCCN)CC(=O)N(CC(=O)N(CC(=O)N(CCCCN)CC(N)=O)[C@H](C)c1ccccc1)[C@H](C)c1ccccc1` [MXB-24,816, H-Ntetradec-Nlys-Nspe-Nspe-Nlys-NH2] (H-[X1][Nlys][Nrpe][Nrpe][Nlys]-NH2), the “antiviral activity against Ebola virus (inhibition of viral titers and GFP-positive Ebola virus replication)” value is “showed antiviral activity”.

(Values after US20250268975A1 (priority 2024, published 2025).)
